This data set in a line: xn = mol fraction of the nth substance listed. To be noted: 298.15 K; 101.3 kPa; x2 = 0.

Experimental findings from the CheMixHub ionic liquid set are described below.

± gives the uncertainty stated by the source.

The compound `CCCC[n+]1ccn(C)c1.F[P-](F)(F)(F)(F)F` + O=C1CCCC1 had a viscosity of 270 ± 34 mPa·s.

In general, viscosity refers to the internal friction of a fluid under shear. High values mean a thick fluid, low ones a thin fluid.
